Assay results as given in PubChem BioAssay (NCI).
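48-hour exposure; five concentrations; linearly interpolated endpoints. GI50 = concentration required for 50% inhibition of growth. TGI is the concentration that stops growth completely.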

Key:
Assay in all cases: DTP human tumour cell line panel, 48 h
786-0 renal = test system: 786-0 renal
A498 renal = test system: A498 renal
A549 NSCLC = test system: A549 NSCLC
ACHN renal = test system: ACHN renal
BT-549 breast = test system: BT-549 breast
CAKI-1 renal = test system: CAKI-1 renal
CCRF-CEM leukemia = test system: CCRF-CEM leukemia
COLO 205 colon = test system: COLO 205 colon
DU-145 prostate = test system: DU-145 prostate
EKVX NSCLC = test system: EKVX NSCLC
HCC-2998 colon = test system: HCC-2998 colon
HCT-116 colon = test system: HCT-116 colon
HCT-15 colon = test system: HCT-15 colon
HL-60(TB) leukemia = test system: HL-60(TB) leukemia
HOP-62 NSCLC = test system: HOP-62 NSCLC
HOP-92 NSCLC = test system: HOP-92 NSCLC
HS 578T breast = test system: HS 578T breast
HT29 colon = test system: HT29 colon
IGROV1 ovarian = test system: IGROV1 ovarian
K-562 leukemia = test system: K-562 leukemia
KM12 colon = test system: KM12 colon
LOX IMVI melanoma = test system: LOX IMVI melanoma
M14 melanoma = test system: M14 melanoma
MALME-3M melanoma = test system: MALME-3M melanoma
MCF7 breast = test system: MCF7 breast
MDA-MB-231 breast = test system: MDA-MB-231 breast
MDA-MB-435 = test system: MDA-MB-435
MOLT-4 leukemia = test system: MOLT-4 leukemia
NCI-H226 lung = test system: NCI-H226 lung
NCI-H23 lung = test system: NCI-H23 lung
NCI-H460 lung = test system: NCI-H460 lung
NCI-H522 lung = test system: NCI-H522 lung
NCI/ADR-RES ovarian = test system: NCI/ADR-RES ovarian
OVCAR-3 ovarian = test system: OVCAR-3 ovarian
OVCAR-4 ovarian = test system: OVCAR-4 ovarian
OVCAR-5 ovarian = test system: OVCAR-5 ovarian
OVCAR-8 ovarian = test system: OVCAR-8 ovarian
PC-3 prostate = test system: PC-3 prostate
RPMI-8226 leukemia = test system: RPMI-8226 leukemia
RXF 393 renal = test system: RXF 393 renal
SF-268 CNS = test system: SF-268 CNS
SF-295 CNS = test system: SF-295 CNS
SF-539 CNS = test system: SF-539 CNS
SK-MEL-2 melanoma = test system: SK-MEL-2 melanoma
SK-MEL-28 melanoma = test system: SK-MEL-28 melanoma
SK-MEL-5 melanoma = test system: SK-MEL-5 melanoma
SK-OV-3 ovarian = test system: SK-OV-3 ovarian
SN12C renal = test system: SN12C renal
SNB-19 CNS = test system: SNB-19 CNS
SNB-75 CNS = test system: SNB-75 CNS
SR leukemia = test system: SR leukemia
SW-620 colon = test system: SW-620 colon
T-47D breast = test system: T-47D breast
TK-10 renal = test system: TK-10 renal
U251 CNS = test system: U251 CNS
UACC-257 melanoma = test system: UACC-257 melanoma
UACC-62 melanoma = test system: UACC-62 melanoma
UO-31 renal = test system: UO-31 renal

CN1CCN(c2nc(-c3cnc4ccccc4n3)cc3ccccc23)CC1
GI50 (786-0 renal): 10.9 µM
TGI (786-0 renal): 24 µM
GI50 (A498 renal): > 68.4 µM
TGI (A498 renal): > 100 µM
GI50 (A549 NSCLC): > 32.1 µM
TGI (A549 NSCLC): > 100 µM
GI50 (ACHN renal): 9.5 µM
TGI (ACHN renal): > 66.3 µM
GI50 (BT-549 breast): 39.6 µM
TGI (BT-549 breast): > 79.3 µM
GI50 (CAKI-1 renal): 9.79 µM
TGI (CAKI-1 renal): > 100 µM
GI50 (CCRF-CEM leukemia): 9.44 µM
TGI (CCRF-CEM leukemia): > 90.3 µM
GI50 (COLO 205 colon): 1.84 µM
TGI (COLO 205 colon): 3.67 µM
GI50 (DU-145 prostate): > 52.1 µM
TGI (DU-145 prostate): > 100 µM
GI50 (EKVX NSCLC): > 56.8 µM
TGI (EKVX NSCLC): > 100 µM
GI50 (HCC-2998 colon): 2.17 µM
TGI (HCC-2998 colon): 5.11 µM
GI50 (HCT-116 colon): 3.51 µM
TGI (HCT-116 colon): 8.19 µM
GI50 (HCT-15 colon): 2.95 µM
TGI (HCT-15 colon): 9.19 µM
GI50 (HL-60(TB) leukemia): 4.21 µM
TGI (HL-60(TB) leukemia): 9.46 µM
GI50 (HOP-62 NSCLC): > 38.2 µM
TGI (HOP-62 NSCLC): > 58.9 µM
GI50 (HOP-92 NSCLC): 2.76 µM
TGI (HOP-92 NSCLC): > 69.7 µM
GI50 (HS 578T breast): 15.1 µM
TGI (HS 578T breast): > 67.6 µM
GI50 (HT29 colon): 3.39 µM
TGI (HT29 colon): 11.7 µM
GI50 (IGROV1 ovarian): 7.96 µM
TGI (IGROV1 ovarian): > 55.2 µM
GI50 (K-562 leukemia): 2.3 µM
TGI (K-562 leukemia): 6.34 µM
GI50 (KM12 colon): > 64.6 µM
TGI (KM12 colon): > 100 µM
GI50 (LOX IMVI melanoma): 2.82 µM
TGI (LOX IMVI melanoma): 7.66 µM
GI50 (M14 melanoma): 1.88 µM
TGI (M14 melanoma): 3.65 µM
GI50 (MALME-3M melanoma): 4.45 µM
TGI (MALME-3M melanoma): 9.15 µM
GI50 (MCF7 breast): 6.61 µM
TGI (MCF7 breast): 20.7 µM
GI50 (MDA-MB-231 breast): 6.47 µM
TGI (MDA-MB-231 breast): > 50.3 µM
GI50 (MDA-MB-435): 3.53 µM
TGI (MDA-MB-435): 12.7 µM
GI50 (MOLT-4 leukemia): 4.7 µM
TGI (MOLT-4 leukemia): > 48.9 µM
GI50 (NCI-H226 lung): 35.8 µM
TGI (NCI-H226 lung): > 100 µM
GI50 (NCI-H23 lung): 30.7 µM
TGI (NCI-H23 lung): > 100 µM
GI50 (NCI-H460 lung): 3.67 µM
TGI (NCI-H460 lung): 13.1 µM
GI50 (NCI-H522 lung): 18.1 µM
TGI (NCI-H522 lung): > 56.8 µM
GI50 (NCI/ADR-RES ovarian): 21.5 µM
TGI (NCI/ADR-RES ovarian): > 100 µM
GI50 (OVCAR-3 ovarian): 18.8 µM
TGI (OVCAR-3 ovarian): > 100 µM
GI50 (OVCAR-4 ovarian): > 43.8 µM
TGI (OVCAR-4 ovarian): > 91.1 µM
GI50 (OVCAR-5 ovarian): > 36 µM
TGI (OVCAR-5 ovarian): > 72.9 µM
GI50 (OVCAR-8 ovarian): 10.3 µM
TGI (OVCAR-8 ovarian): > 100 µM
GI50 (PC-3 prostate): 10.3 µM
TGI (PC-3 prostate): > 100 µM
GI50 (RPMI-8226 leukemia): 3.04 µM
TGI (RPMI-8226 leukemia): 13 µM
GI50 (RXF 393 renal): 4.97 µM
TGI (RXF 393 renal): 15.1 µM
GI50 (SF-268 CNS): > 46.8 µM
TGI (SF-268 CNS): > 100 µM
GI50 (SF-295 CNS): 7.88 µM
TGI (SF-295 CNS): 20.3 µM
GI50 (SF-539 CNS): 8 µM
TGI (SF-539 CNS): > 51.2 µM
GI50 (SK-MEL-2 melanoma): 30.8 µM
TGI (SK-MEL-2 melanoma): > 54.7 µM
GI50 (SK-MEL-28 melanoma): 2.29 µM
TGI (SK-MEL-28 melanoma): 5.27 µM
GI50 (SK-MEL-5 melanoma): 7.39 µM
TGI (SK-MEL-5 melanoma): > 50.4 µM
GI50 (SK-OV-3 ovarian): > 44.8 µM
TGI (SK-OV-3 ovarian): > 72 µM
GI50 (SN12C renal): 12.6 µM
TGI (SN12C renal): > 48.6 µM
GI50 (SNB-19 CNS): > 53.7 µM
TGI (SNB-19 CNS): > 100 µM
GI50 (SNB-75 CNS): 16.7 µM
TGI (SNB-75 CNS): > 88.6 µM
GI50 (SR leukemia): 2.02 µM
TGI (SR leukemia): 6.04 µM
GI50 (SW-620 colon): 2.22 µM
TGI (SW-620 colon): 5.11 µM
GI50 (T-47D breast): 12.4 µM
TGI (T-47D breast): 31.2 µM
GI50 (TK-10 renal): > 41.8 µM
TGI (TK-10 renal): > 62.7 µM
GI50 (U251 CNS): 8 µM
TGI (U251 CNS): > 48.4 µM
GI50 (UACC-257 melanoma): 1.89 µM
TGI (UACC-257 melanoma): 3.91 µM
GI50 (UACC-62 melanoma): 2.84 µM
TGI (UACC-62 melanoma): 8.23 µM
GI50 (UO-31 renal): 3.67 µM
TGI (UO-31 renal): > 49.3 µM
